This passage reports RP-LC retention time results from the METLIN SMRT retention time set (Domingo-Almenara et al. 2019).

This data set can be described thus: gradient 5% acetonitrile 3 min, to 50% in 2 min, to 85% in 15 min, held 3 min, 100 µL/min. The conditions noted are these: column: Zorbax Extend-C18 2.1 x 50 mm; eluents: water / acetonitrile, 0.1% formic acid. An outline of the steps: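 The system's dead and dwell volumes were 40 μL and 900 μL, with a Zorbax Extend-C18 column (2.1 × 50 mm, 1.8 μm) run at 100 μL/min in water and acetonitrile containing 0.1% formic acid each. Pure standards were analyzed in mixtures of ~100 molecules by HPLC–quadrupole time-of-flight mass spectrometry in positive and negative ionization mode. Retention time was assigned from computationally picked, manually inspected adduct peaks.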
For `COc1ccc(N2CC(C(=O)N3CCC(c4noc(-c5ccccc5)n4)CC3)CC2=O)cc1` (stereo not given), the RP-LC retention time is 855 s.
In the case of `CCN1c2ccccc2C(=O)NC12CCN(C(=O)NCc1ccccc1)CC2` it was 881 s; in that of `O=C(NC1CCCC1)c1cc(C2CC2)[nH]n1`, 692 s.
Next, `CC#CCOC(=O)c1c(C)nc2sc3c(c2c1N)CCC(O)C3` (stereo not given): 662 s; `COc1ccc(C(C)NC(=O)c2cc(NC(C)=O)cc3nc(C)ccc23)cc1OC` (stereo not given): 599 s.
In the case of `O=C(C1CCCCCC1)N1CCC2(CC1)CC(O)CCO2` (stereo not given) it was 681 s.
Regarding `O=S(=O)(c1cccc(-c2cn3cc(Cl)ccc3n2)c1)N1CCCCCC1`, the RP-LC retention time amounted to 944 s.
In the case of `O=C(Cc1cn2cc(F)ccc2n1)Nc1ccccc1` it was 580 s; in that of `Cc1ccc(-c2noc(C3CCCN3S(=O)(=O)c3cc(C)c(C)cc3C)n2)cc1` (stereo not given), 1340 s; in that of `O=C(NCC1CCCO1)C1CCN(c2nccnc2Sc2ccccc2)CC1` (stereo not given), 796 s.
Next, `COC(=O)c1ccc(-c2nc3cnccn3c2Nc2ccc(C)c(Br)c2)cc1`: 1040 s; `CCc1nc(-c2ccc(-c3noc(CNC(=O)Cc4ccc(Cl)cc4)n3)cc2)cs1`: 1080 s; `CCOc1ccc(/C=C/C(=O)Nc2nc(-c3ccccc3)cs2)cc1`: 1140 s.
In the case of `CN(CC1CCOCC1)C(=O)Nc1cccc(Br)c1` it was 784 s; in that of `Cc1sc(C)c(S(=O)(=O)NCC(C)c2ccccc2)c1-c1cc(C(F)(F)F)on1` (stereo not given), 1250 s.
`CC(C)Sc1nnc(N2CCN(c3ccc(F)cc3)CC2)s1` showed an RP-LC retention time of 1000 s.
In the case of `COc1cc(NC(=O)N2CCN(Cc3nc4ccc(C)cc4o3)CC2)cc(OC)c1OC` it was 669 s; in that of `COc1ccc(N2CCN(C(=O)C3CCCN(C(=O)c4cc5sccc5n4C)C3)CC2)cc1` (stereo not given), 821 s.
`O=C(Nc1ccc(F)cc1F)C1CC(=O)N(CCc2c[nH]c3ccc(F)cc23)C1` (stereo not given) showed an RP-LC retention time of 784 s.
As to `Cc1csc(-c2cc(S(=O)(=O)N(C)Cc3ccco3)c(C)n2C)n1`, the RP-LC retention time came to 1000 s.
`O=C1c2ccccc2C(=O)c2sc(Nc3ccc(Cl)cc3)nc21` had an RP-LC retention time of 1030 s.
Next, `CCCS(=O)(=O)N1CCCN(S(=O)(=O)c2ccccc2)CCC(=O)NCC1`: 707 s.
In the case of `COc1cc(N2CCN(S(=O)(=O)c3ccccc3F)CC2)nc(OC)n1` it was 816 s; in that of `Cc1cc(C)c(NC(=O)Cn2cccc2-c2nc(-c3ccc4c(c3)OCO4)no2)c(C)c1`, 1120 s.
Next, `CC12CC(NC(=O)N1c1cccc(C(=O)NCc3ccco3)c1)c1cc(Br)ccc1O2` (stereo not given): 846 s; `Cc1ccc(S(=O)(=O)N2CCC(C(=O)NCc3csc(-c4cccs4)n3)CC2)cc1`: 910 s.
Regarding `CCCC(NC(=O)c1cccc(F)c1)C(=O)Nc1nc2ccccc2[nH]1` (stereo not given), the RP-LC retention time turned out to be 693 s.
In the case of `CCOC(=O)Cc1ccc(NC(=O)N2CCSc3nc(C)cc(C)c32)cc1` it was 735 s; in that of `CC(=O)NCc1csc(C2CCN(C(=O)COc3ccc(F)cc3)CC2)n1`, 662 s; in that of `Cc1ccc(-c2noc(-c3nn(CC(=O)NC(C)C)c4ccccc34)n2)cc1`, 1080 s.
Next, `Cc1occc1C(=O)NC1CCc2nn(CC3CC3)c(=O)n2CC1` (stereo not given): 636 s; `COc1ccc(NC(=O)c2[nH]c3cc(C)sc3c2CN(C)C)cc1F`: 680 s.
In the case of `O=C(CSc1nccn1-c1ccc(C(=O)NCc2cccs2)cc1)NC1CCCC1` it was 644 s.
Molecule `Cc1nn(-c2ccc(Cl)cc2)c(C)c1S(=O)(=O)N1CCC(C(=O)N2CCOCC2)CC1` had an RP-LC retention time of 810 s.
Next, `O=C(COc1ccc(Cl)cc1)NCc1nnc(SCC(=O)Nc2nccs2)o1`: 703 s; `CS(=O)(=O)N1CC(C(=O)Nc2ccccc2)C2(CCCCC2)C1` (stereo not given): 875 s.
For `COc1ccc(N2CC(C(=O)Nc3cc(C)nn3C3CCS(=O)(=O)C3)CC2=O)cc1` (stereo not given), the RP-LC retention time was determined as 638 s.
In the case of `CC(C)Oc1ccc(-c2noc(Cn3c(=O)n(-c4ccc(Cl)cc4)c(=O)c4sccc43)n2)cc1` it was 1140 s; in that of `Cc1nnc(-c2coc(S(=O)(=O)N3CCC(Cc4ccccc4)CC3)c2)o1`, 1010 s.
In the case of `N#Cc1cccc(-c2cn3c(n2)N(C(=O)CC2CCCC2)CCC3)c1` it was 848 s; in that of `O=S(=O)(Cc1cccc(Cl)c1)NCC(c1ccc(F)cc1)N1CCOCC1` (stereo not given), 609 s.
`O=c1ccc(S(=O)(=O)N2CCCC2)cn1Cc1ccccc1Cl`: the RP-LC retention time was determined as 854 s.
Next, `CCOc1ccc(-c2nc3ncccn3c2NCc2ccc(C)cc2)cc1`: 800 s.
Next, `CCc1noc2nc(CCC(=O)NCCOC)nc(N3CCCCC3)c12`: 724 s.
In the case of `COc1ccc(S(=O)(=O)NC(CC(=O)O)c2ccccc2)cc1` (stereo not given) it was 674 s; in that of `CCc1ccc(NS(=O)(=O)c2cc3c4c(c2)CCC(=O)N4CCC3)cc1`, 906 s; in that of `CCc1nc(-c2csc(S(=O)(=O)N3CCCC(C(=O)Nc4cc(C)cc(C)c4)C3)c2)no1` (stereo not given), 1090 s.
The molecule `O=c1ccc(-c2ccccc2)nn1CCc1nc(-c2ccc(F)cc2)no1` came in with an RP-LC retention time of 970 s.
In the case of `O=C(CCS(=O)(=O)c1ccccc1)Nc1nc(-c2cc(Cl)sc2Cl)cs1` it was 1060 s.
Molecule `COc1cccc(NC(=O)Cn2ccnc2-c2ccnc(N3CCCC3)c2)c1` displayed an RP-LC retention time of 602 s.
Next, `C=CCc1ccccc1OCC(O)CN1CCC(C)CC1` (stereo not given): 588 s; `Cc1ccccc1Oc1nccn2c(=O)n(CC(=O)Nc3ccc(Cl)c(Cl)c3)nc12`: 996 s; `CCc1nc(-c2cccc(-c3noc(COc4ccccc4)n3)c2)cs1`: 1300 s.
In the case of `Cc1noc(-c2ccc(NC(=O)C3c4ccccc4Oc4ccccc43)cc2)n1` it was 983 s.
Next, `COc1ccc(C(=O)NC(C)C(=O)Nc2nc3ccccc3[nH]2)cc1` (stereo not given): 648 s; `Cc1nn(-c2nc(-c3ccc(Cl)cc3)cs2)c(C)c1CC(=O)N1CCN(c2ccccc2)CC1`: 1290 s.
On to `CCCCN(C)c1nc(-c2ccc([N+](=O)[O-])cc2)nc2ccccc12`, for which the RP-LC retention time turned out to be 883 s.
In the case of `CCn1c(=O)sc2cc(S(=O)(=O)N3CCC(C(=O)NCc4ccccn4)CC3)ccc21` it was 629 s.
In the case of `Cc1cccc(OCCc2noc(C3CN(S(=O)(=O)N(C)C)C3)n2)c1` it was 950 s; in that of `CCn1ncc(CN(C)C(=O)c2cn3ccccc3n2)c1C`, 556 s.
